# Experimental data from ChEMBL document CHEMBL3600293, “Design, synthesis and evaluation of MCH receptor 1 antagonists--Part I: Optimization of HTS hits towards an in vivo efficacious tool compound BI 414” (Bioorg Med Chem Lett, 2015).
# Legend:
# [1] = in vitro; details: rat, liver microsomes
# Description: Half life in rat liver microsomes
# [2] = in vitro; details: human, liver microsomes
# Description: Half life in human liver microsomes
compound,measurement,setting,value
NC(=O)C1CCN(CCOc2ccc(C#Cc3ccc(-c4ccc(Cl)cc4)cn3)cc2)CC1,half-life,[1],21 min
same,half-life,[2],> 90 min
